Source: ChEMBL document CHEMBL4840355, “Antitumor and toxicity study of mitochondria-targeted triptolide derivatives using triphenylphosphine (TPP+) as a carrier” (Bioorg Med Chem, 2021)
Active and inactive are the calls of the source. The calls are words filed in the database; no cut-off is given here.

Assays:
HepG2 [1] = test: Induction of mitochondrial membrane potential loss in human HepG2 cells assessed as proportion of cells with depolarized mitochondria at 75 nM measured after 48 hrs by JC-1 staining based flow cytometry analysis (Rvb= 9.1%); format: functional
[2] = Toxicity in zebrafish AB assessed as increase in embryo malformation rate at 0.05 to 2 uM measured at 72 hrs postfertilization; parameters: species or system Danio rerio; details: in vivo, dose 0.05-2 µM
HepG2 [3] = test: Cytotoxicity against human HepG2 cells assessed as inhibition of cell proliferation measured after 48 hrs by MTT assay; format: functional, cell-based; details: HepG2, 48 h
HepG2 [4] = test: Antitumor activity against human HepG2 cells xenografted in zebra fish AB assessed as tumor growth inhibition at 1 uM measured after 48 hrs by fluorescence microscopic analysis; format: functional, cell-based
[5] = Toxicity in zebrafish AB assessed as hatching rate at <12 uM measured at 72 hrs postfertilization; parameters: species or system Danio rerio; details: in vivo
HepG2 [6] = test: Induction of apoptosis in human HepG2 cells assessed as necrotic cells at 150 nM measured after 48 hrs by Annexin V-FITC/PI double staining based flow cytometry analysis (Rvb= 0.13%); format: functional
[7] = Hepatotoxicity in transgenic zebrafish Tg(1-fabp:EGFP) assessed as liver damage by measuring decrease in fluorescence intensity and area at 0.05 to 0.5 uM measured after 96 hrs; format: toxicity, tissue-based, Danio rerio; details: in vivo, dose 0.05-0.5 µM
MCF7 = test: Cytotoxicity against human MCF7 cells assessed as inhibition of cell proliferation measured after 48 hrs by MTT assay; format: functional, cell-based; details: MCF7, 48 h
HepG2 [8] = test: Induction of apoptosis in human HepG2 cells assessed as early apoptotic cells at 50 nM measured after 48 hrs by Annexin V-FITC/PI double staining based flow cytometry analysis (Rvb= 2.16%); format: functional
HepG2 [9] = test: Induction of mitochondrial membrane potential loss in human HepG2 cells assessed as proportion of cells with depolarized mitochondria at 200 nM measured after 48 hrs by JC-1 staining based flow cytometry analysis (Rvb= 9.1%); format: functional
HepG2 [10] = test: Induction of mitochondrial membrane potential loss in human HepG2 cells assessed as proportion of cells with hyperpolarized mitochondria at 75 nM measured after 48 hrs by JC-1 staining based flow cytometry analysis (Rvb= 80.9%); format: functional
HepG2 [11] = test: Induction of apoptosis in human HepG2 cells assessed as necrotic cells at 100 nM measured after 48 hrs by Annexin V-FITC/PI double staining based flow cytometry analysis (Rvb= 0.13%); format: functional
HepG2 [12] = test: Cytotoxicity against human HepG2 cells assessed as increase in release of LDH measured after 48 hrs by LDH assay; format: functional, cell-based; details: dose 100-200 nM
NCI-H1975 = test: Cytotoxicity against human NCI-H1975 cells assessed as inhibition of cell proliferation measured after 48 hrs by MTT assay; format: functional, cell-based; details: NCI-H1975, 48 h
HepG2 [13] = test: Induction of mitochondrial membrane potential loss in human HepG2 cells assessed as proportion of cells with depolarized mitochondria at 150 nM measured after 48 hrs by JC-1 staining based flow cytometry analysis (Rvb= 9.1%); format: functional
HepG2 [14] = test: Antitumor activity against human HepG2 cells xenografted in zebra fish AB assessed as tumor growth inhibition at 0.5 to 1 uM measured after 48 hrs by fluorescence microscopic analysis; format: functional, cell-based; details: dose 0.5-1 µM
PANC-1 = test: Cytotoxicity against human PANC-1 cells assessed as inhibition of cell proliferation measured after 48 hrs by MTT assay; format: functional, cell-based; details: PANC-1, 48 h
[15] = Toxicity in zebrafish AB assessed as increase in hatching rate at 0.05 to 2 uM measured at 72 hrs postfertilization; parameters: species or system Danio rerio; details: in vivo, dose 0.05-2 µM
HepG2 [16] = test: Induction of ROS generation in human HepG2 cells assessed as increase in ROS level at 50 to 150 nM measured after 48 hrs by DCFH-DA staining based flow cytometry analysis; format: functional, cell-based; details: dose 50-150 nM
[17] = Cytotoxicity against human HBE cells assessed as inhibition of cell proliferation measured after 48 hrs by MTT assay; format: cell-based
HepG2 [18] = test: Induction of apoptosis in human HepG2 cells assessed as late apoptotic cells at 75 nM measured after 48 hrs by Annexin V-FITC/PI double staining based flow cytometry analysis (Rvb= 2.89%); format: functional
[19] = Toxicity in zebrafish AB assessed as malformation rate at <12 uM measured at 72 hrs postfertilization; parameters: species or system Danio rerio; details: in vivo
NCI-H1299 = test: Cytotoxicity against human NCI-H1299 cells assessed as inhibition of cell proliferation measured after 48 hrs by MTT assay; format: functional, cell-based; details: NCI-H1299, 48 h
HepG2 [20] = test: Induction of apoptosis in human HepG2 cells assessed as late apoptotic cells at 150 nM measured after 48 hrs by Annexin V-FITC/PI double staining based flow cytometry analysis (Rvb= 2.89%); format: functional
PC-3 = test: Cytotoxicity against human PC-3 cells assessed as inhibition of cell proliferation measured after 48 hrs by MTT assay; format: functional, cell-based; details: PC-3, 48 h
HepG2 [21] = test: Induction of apoptosis in human HepG2 cells assessed as induction of morphological changes by measuring nuclear shrinkage and cleavage at 25 to 100 nM measured after 48 hrs by DAPI staining based inverted fluorescence microscope analysis; format: functional, cell-based; details: dose 25-100 nM
[22] = Toxicity in zebrafish AB assessed as pericardial edema at 12 uM measured at 72 hrs postfertilization; parameters: species or system Danio rerio; details: in vivo
HepG2 [23] = test: Induction of apoptosis in human HepG2 cells assessed as live cells at 100 nM measured after 48 hrs by Annexin V-FITC/PI double staining based flow cytometry analysis (Rvb= 94.8%); format: functional
HepG2 [24] = test: Induction of apoptosis in human HepG2 cells assessed as live cells at 150 nM measured after 48 hrs by Annexin V-FITC/PI double staining based flow cytometry analysis (Rvb= 94.8%); format: functional
HepG2 [25] = test: Induction of mitochondrial membrane potential loss in human HepG2 cells assessed as proportion of cells with hyperpolarized mitochondria at 50 nM measured after 48 hrs by JC-1 staining based flow cytometry analysis (Rvb= 80.9%); format: functional
HepG2 [26] = test: Induction of mitochondrial membrane potential loss in human HepG2 cells assessed as proportion of cells with hyperpolarized mitochondria at 200 nM measured after 48 hrs by JC-1 staining based flow cytometry analysis (Rvb= 80.9%); format: functional
HepG2 [27] = test: Induction of apoptosis in human HepG2 cells assessed as necrotic cells at 50 nM measured after 48 hrs by Annexin V-FITC/PI double staining based flow cytometry analysis (Rvb= 0.13%); format: functional
[28] = Toxicity in zebrafish AB assessed as mortality at <12 uM measured at 72 hrs postfertilization; parameters: species or system Danio rerio; details: in vivo
[29] = Toxicity in zebrafish AB assessed as body length at 0.05 to 2 uM measured at 72 hrs postfertilization; parameters: species or system Danio rerio; details: in vivo, dose 0.05-2 µM
HepG2 [30] = test: Induction of apoptosis in human HepG2 cells assessed as early apoptotic cells at 100 nM measured after 48 hrs by Annexin V-FITC/PI double staining based flow cytometry analysis (Rvb= 2.16%); format: functional
[31] = Toxicity in zebrafish AB assessed as mortality at 0.05 to 2 uM measured at 72 hrs postfertilization; parameters: species or system Danio rerio; details: in vivo, dose 0.05-2 µM

CC(C)[C@]12O[C@H]1[C@@H]1O[C@]13[C@]1(O[C@H]1C[C@H]1C4=C(CC[C@@]13C)C(=O)OC4)[C@@H]2OC(=O)CCCCC[P+](c1ccccc1)(c1ccccc1)c1ccccc1.[Br-]
Activity (HepG2 [1]): 35.6% | Activity [2]: Non-Toxic | IC50 (HepG2 [3]): 0.067 µM | Activity (HepG2 [4]): Active | Activity [5]: Non-Toxic | Activity (HepG2 [6]): 0.1% | Activity [7]: Non-Toxic | IC50 (MCF7): 0.238 µM | Activity (HepG2 [8]): 3.89% | Activity (HepG2 [9]): 55.7% | Activity (HepG2 [10]): 64.4% | Activity (HepG2 [11]): 0.18% | Activity (HepG2 [12]): Dose-Dependent Effect | IC50 (NCI-H1975): 0.088 µM | Activity (HepG2 [13]): 48.9% | Activity (HepG2 [14]): Active | IC50 (PANC-1): 0.349 µM | Activity [15]: Non-Toxic | Activity (HepG2 [16]): Active | IC50 [17]: 0.21 µM | Activity (HepG2 [18]): 7.47% | Activity [19]: Non-Toxic | IC50 (NCI-H1299): 0.254 µM | Activity (HepG2 [20]): 16.6% | IC50 (PC-3): 0.186 µM | Activity (HepG2 [21]): Active | Activity [22]: Toxic | Activity (HepG2 [23]): 59.9% | Activity (HepG2 [24]): 49.6% | Activity (HepG2 [25]): 74.7% | Activity (HepG2 [26]): 44.3% | Activity (HepG2 [27]): 0.63% | Activity [28]: Non-Toxic | Activity [29]: Non-Toxic | Activity (HepG2 [30]): 27.8% | Activity [31]: Non-Toxic
